IC50 and melting point data for five compounds are collected here from patent US20100173910A1, “TRIAMINOPYRIMIDINE CYCLOBUTENEDIONE DERIVATIVES USED AS PHOSPHATASE CDC25 INHIBITORS” (IPDRN PHSTMS D.S.S., priority 2007, published 2010).

Series [1] deals with T1, purified recombinant CDC25C enzyme (MBP-CDC25C protein) (Homo sapiens, UniProt P30307).
T1 construct: made in house
T1 sequence (P30307 1-473): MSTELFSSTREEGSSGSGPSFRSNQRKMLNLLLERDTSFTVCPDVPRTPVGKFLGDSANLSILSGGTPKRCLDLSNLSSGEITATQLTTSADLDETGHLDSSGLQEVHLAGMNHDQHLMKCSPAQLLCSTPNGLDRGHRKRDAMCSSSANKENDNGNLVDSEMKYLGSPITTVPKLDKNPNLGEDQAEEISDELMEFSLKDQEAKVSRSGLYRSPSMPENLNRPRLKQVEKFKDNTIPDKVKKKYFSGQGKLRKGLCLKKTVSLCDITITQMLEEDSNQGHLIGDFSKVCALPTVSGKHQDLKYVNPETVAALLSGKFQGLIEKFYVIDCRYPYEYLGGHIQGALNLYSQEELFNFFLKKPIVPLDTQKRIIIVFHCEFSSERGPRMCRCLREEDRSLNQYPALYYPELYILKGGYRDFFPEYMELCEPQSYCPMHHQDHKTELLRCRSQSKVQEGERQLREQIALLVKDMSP
Put plainly: Phosphatase activity of the purified recombinant CDC25C enzyme (OMFP dephosphorylation, fluorescence). The note with it: OMFP 500 μM, 4 hours at 30° C., three independent experiments; nested upper bounds; read-out: IC50 for the phosphatase activity of the purified recombinant CDC25-C enzyme. The series is classed as biochemical. As to the method: i) Determination of the Phosphatase Activity of the Purified Recombinant CDC25C Enzyme:
The phosphatase activity of the MBP-CDC25C protein is evaluated through its dephosphorylation of 3-O-methylfluorescein-phosphate (OMFP) to form 3-O-methylfluorescein (OMF), determining the fluorescence of the reaction product at 475 nm. This assay can be used to identify inhibitors of the recombinant CDC25 enzyme. The preparation of the MBP-CDC25C fusion protein is described in the PCT patent application published under the number WO 01/44467.
The reaction is performed in 384-well plates in a final volume of 50 μl. The MBP-CDC25C protein (prepared as described hereinabove) is stored in the following elution buffer: 20 mM Tris-HCl pH 7.4; 250 mM NaCl; 1 mM EDTA; 1 mM dithiothreitol (DTT); 10 mM maltose. It is diluted to a concentration of 60 μM in the following reaction buffer: 50 mM Tris-HCl pH 8.2; 50 mM NaCl; 1 mM DTT; 20% glycerol. The background noise is determined using with the buffer without adding the enzyme. The products are tested at decreasing concentrations from 40 μM. The reaction is initiated by the addition of OMFP solution to a final concentration of 500 μM (prepared immediately before use from a 12.5 mM stock solution in 100% DMSO (Sigma #M2629)). After 4 hours at 30° C. in a disposable 384-well plate, the fluorescence measured at OD 475 nm is read on a Victor^2 plate reader (EGG-Wallac). The concentration that produces 50% inhibition of the enzyme reaction is calculated from three independent experiments. Only the values that fall within the linear part of the sigmoid curve are used for the linear regression analysis.

Series [2] deals with MIA PaCa-2 (human pancreatic carcinoma cells). Kind of series: Anti-proliferative activity, MIA PaCa-2 cells (WST1 colorimetric test). The note with it: MIA PaCa-2, 96 h, 96 hours treatment, up to 10 μM, nested upper bounds, read-out: IC50 for proliferation of the MIA PaCa-2 cell lines. The format is cell-based. On the procedure: (§1) ii) Characterisation of Anti-Proliferative Activity:
(§2) By way of an example, the effect of treating two human cell lines MIA PaCa-2 and DU 145 with the compounds of the examples described hereinbefore will be studied. The cell lines DU 145 (human prostate carcinoma cells) and MIA PaCa-2 (human pancreatic carcinoma cells) were obtained from the American Tissue Culture Collection (Rockville, Md., USA). A 96-well plate was inoculated on day 0 with cells in 80 μl of Dulbecco's modified Eagle's medium (Gibco-Brl, Cergy-Pontoise, France) with 10% heat-inactivated foetal calf serum (Gibco-Brl, Cergy-Pontoise, France), 50,000 units/l of penicillin and 50 mg/l of streptomycin (Gibco-Brl, Cergy-Pontoise, France) and 2 mM of glutamine (Gibco-Brl, Cergy-Pontoise, France). The cells were treated on day 1 for 96 hours with increasing concentrations of each test compound up to 10 μM. At the end of this period, cell proliferation is quantified by means of a colorimetric test based on cleavage of the tetrazolium salt WST1 by the mitochondrial dehydrogenases in the viable cells, resulting in formation of formazan (Boehringer Mannheim, Meylan, France). These tests are performed in duplicate with 8 determinations per concentration tested. For each test compound, the values within the linear part of the sigmoid curve were subjected to linear regression analysis and used to estimate the IC50 inhibitory concentration. The products are solubilised in dimethylsulfoxide (DMSO) at a concentration of 10^−2 M and used in culture with a final DMSO concentration of 0.1%.

In series [3] the test system is DU 145 (human prostate carcinoma cells). Put plainly: Anti-proliferative activity, DU 145 cells (WST1 colorimetric test). The series is classed as cell-based. The note with it: DU-145, 96 h, 96 hours treatment, up to 10 μM, nested upper bounds, read-out: IC50 for proliferation of the DU 145 cell lines. On the procedure:
as §1, §2
A general note: Tetrazolium assays rely on reduction of a dye to a coloured formazan, in cell work by metabolically active cells.

One may read the melting point as the temperature of the solid-liquid transition. Compound `CC(C)(C)OC(=O)NCc1ccc(Nc2c(NCCNc3cc(N4CCCC4)nc(N4CCCC4)n3)c(=O)c2=O)cc1` [Example 25, tert-butyl (4-{[2-({2-[(2,6-dipyrrolidin-1-ylpyrimidin-4-yl)amino]ethyl}amino)-3,4-dioxocyclobut-1-en-1-yl]amino}benzyl)carbamate] registered a melting point of 176 to 180 °C. Also, in series [1], the IC50 is at most 1 µM. Further, the IC50 in series [2] was at most 10 µM. The IC50 in series [3] is at most 10 µM.

The compound `O=c1c(NCCNc2cc(N3CCCC3)nc(N3CCCC3)n2)c(Nc2ccc3c(c2)OCO3)c1=O` [Example 26, 3-(1,3-benzodioxol-5-ylamino)-4-({2-[(2,6-dipyrrolidin-1-ylpyrimidin-4-yl)amino]ethyl}amino)cyclobut-3-ene-1,2-dione] had a melting point of 180 to 190 °C. For the same compound, the IC50 in series [1] is at most 1 µM. For the same compound, in series [2], the IC50 is at most 10 µM. Further, the IC50 in series [3] was at most 10 µM.

Take `CC(C)(C)OC(=O)NCCc1ccc(Nc2c(NCCNc3cc(N4CCCC4)nc(N4CCCC4)n3)c(=O)c2=O)cc1` [Example 29, tert-butyl [2-(4-{[2-({2-[(2,6-dipyrrolidin-1-ylpyrimidin-4-yl)amino]ethyl}amino)-3,4-dioxocyclobut-1-en-1-yl]amino}phenyl)ethyl]carbamate]: the melting point lay within 216 to 218 °C. In addition, in series [1], the IC50 was at most 1 µM. The IC50 in series [2] is at most 10 µM. Further, the IC50 in series [3] was at most 10 µM.

The compound `O=c1c(NCCNc2cc(N3CCCC3)nc(N3CCCC3)n2)c(Nc2ccc(F)cc2)c1=O` [Example 31, 3-({2-[(2,6-dipyrrolidin-1-ylpyrimidin-4-yl)amino]ethyl}amino)-4-[(4-fluorophenyl)amino]cyclobut-3-ene-1,2-dione] showed a melting point of 241 to 243 °C. Besides, the IC50 in series [1] is at most 1 µM. The IC50 in series [2] was at most 10 µM. Besides, the IC50 in series [3] is at most 10 µM.

In turn, `N#Cc1ccc(Nc2c(NCCNc3cc(N4CCCC4)nc(N4CCCC4)n3)c(=O)c2=O)cc1` [Example 33, 3-({2-[(2,6-dipyrrolidin-1-ylpyrimidin-4-yl)amino]ethyl}amino)-4-[(4-cyanophenyl)amino]cyclobut-3-ene-1,2-dione] had a melting point above 250 °C. For the same compound, in series [1], the IC50 is at most 1 µM. For the same compound, the IC50 in series [2] is at most 10 µM. The IC50 in series [3] is at most 10 µM.
